Measured values: patent US20060088529A1, “Bispecific monoclonal antibodies to IL-12 and IL-18” (priority 2000, published 2006)

How the values were obtained:
KG-1 cells = experiment: IFN-γ production in KG-1 cells (ELISA); assay type: cell-based, human; settings: IL-18 50 nM, 16 to 24 hours
Description: (§1) Two assays show the bioactivity of IL-12 and IL-18 alone. NK-92 is a natural killer line derived from a patient with malignant […] lymphoma. KG-1 is a myelomonocytic line derived from a patient with acute myelogenous leukemia. NK-92 and KG-1 cells constitutively express the IL-12 and IL-18 receptors, respectively.
(§2) KG-1 cells were cultured in serum-free medium for 24 hours, and then plated at 1×10^6 cells/ml in 96-well plates. As indicated, IL-18 (50 nM) or DEX (20 nM) were added. NK-92 cells were cultured in the presence of 10 U/ml IL-2, and plated at 2.5×10^4 viable (Trypan Blue negative) cells/ml in 96-well plates. As indicated, IL-12 (10 pM) or DEX (20 nM) were added. The KG-1 and NK-92 cells were incubated for 16 to 24 hours, and the amount of IFN-γ in the culture medium was determined using the Biosource Cytoscreen IFN-γ ELISA kit.

NK-92 cells = experiment: IFN-γ production in NK-92 cells (ELISA); assay type: cell-based, human; settings: IL-12 10 pM, 16 to 24 hours
Description: as §1, §2

With Interleukin-18 [IL-18] as the substance, how does the IFN-γ production (KG-1 cells) read?
The IFN-γ production was “induce IFN-γ production”.

With Interleukin-12 [IL-12] as the substance, how does the IFN-γ production (NK-92 cells) read?
The IFN-γ production was “induce IFN-γ production”.
